Earlier results on 4 compounds are cited in patent US9375463B2, “Compositions and methods for improving sleep using a nutraceutical formulation” (Creative Medical Health Inc., priority 2013, dated 2016).

For one data set, the system named is elderly subjects. Particulars: 500 mg daily for 8 weeks, 46 elderly subjects.
The conditions of data set [1]: 3 mg.
Data set [2] concerns healthy males with normal sleep patterns. The conditions noted are these: 0.3 or 1.0 mg, orally.
Data set [3] deals with children most of whom were neurologically disabled. The conditions noted are these: 2-5 mg before bedtime for 7-10 days, fifteen subjects.
A further data set has as its system subjects. The conditions noted are these: oral, 4 weeks, 9 subjects; by increasing sensitivity to light.
In another data set the test system is infants. The conditions noted are these: daily for 12 months.

As to `[Mg+2]` [magnesium], in the data set with elderly subjects, the “levels of serum cortisol” value is on record as “reduced the levels of serum cortisol” and the “subjective measures of sleep” value is listed as “improved subjective measures of sleep”.
On to “N-acetyl-5-hydroxytryptamine [melatonin]”, for which, in data set [1], the “subjective sleep experiences (time to fall asleep, quality of sleep, awakenings)” value was “subjective improvements in sleep experiences”. In addition, the “falling asleep faster than individuals given placebo (sleep onset latency)” value in data set [2] was “approximately 40 minutes”. Besides, the sleep and moods entry in data set [3] is “improve sleep and moods”.
Consider vitamin B12, for which the circadian rhythm result in the data set with subjects is “advanced the circadian rhythm”.
Consider zinc [zinc supplements], for which, in the data set on infants, the night sleep duration result is reported as “increased night sleep duration” and the night waking result is recorded as “less night waking”.
